Test systems include A498; CAKI-1; CCRF-CEM; COLO 205; HCT-116; M14; NCI-H226; NCI-H460; OVCAR-3; OVCAR-8; SF-268; SK-MEL-5; SNB-19; SNB-75; SR; SW-620; TK-10; UO-31; LOX IMVI.
Experiment in all cases: NCI anticancer screen, dose series, 48 h

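Each compound was tested at five concentrations against cells in 96-well plates for 48 hours. GI50: concentration for 50% inhibition of growth.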 Activity calls are given as the source filed them. No stated cut-off is given here; in the data, active = GI50 up to about 1.1 µM and inactive = higher.

`Cn1c(=O)c2c(nc3n2C(CCl)CO3)n(C)c1=O` (stereo not drawn): the GI50 in the assay on A498, in the assay on CAKI-1, with CCRF-CEM, in the assay with COLO 205, in the assay on HCT-116 and in the assay on M14 was > 100 µM (inactive) throughout. Further, the GI50 in the assay on NCI-H226, in the assay with NCI-H460, in the assay with OVCAR-3, in the assay with OVCAR-8, in the assay on SF-268 and with SK-MEL-5 was > 100 µM (inactive) throughout. Further, the GI50 in the assay with SNB-19, with SNB-75, with SR, with SW-620, in the assay with TK-10 and with UO-31 was > 100 µM (inactive) throughout.
With `CC(=O)NC1C(OCc2ccccc2)OC(CO)C(O)C1OC(C)C(=O)N[C@@H](C)C(=O)N[C@H](CCC(=O)OCCNc1c2ccccc2nc2cccc([N+](=O)[O-])c12)C(N)=O` (stereo partly drawn), the GI50 in the assay on A498 is 0.00501 µM (active); in the assay on CAKI-1, 0.00625 µM (active); with CCRF-CEM it was 0.0189 µM (active); with COLO 205 it was 0.00111 µM (active); in the assay on HCT-116 it was 0.000195 µM (active); with M14 it was 0.00109 µM (active). The GI50 with NCI-H226 was 0.00548 µM (active); in the assay on NCI-H460, 0.000129 µM (active); with OVCAR-3, 0.00142 µM (active); in the assay with OVCAR-8, 0.00235 µM (active); in the assay on SF-268 it was 0.00394 µM (active); in the assay with SK-MEL-5 it was 0.00239 µM (active). Moreover, the GI50 with SNB-19 is 0.000187 µM (active); in the assay with SNB-75, 0.0114 µM (active); with SR it was 3.64e-05 µM (active); in the assay with SW-620, 0.000191 µM (active); in the assay with TK-10 it was 0.00344 µM (active); in the assay on UO-31, 0.00292 µM (active).
On to `O=C(c1ccccc1)c1nnn(Cc2cccc(Cl)c2)c1C(=O)c1ccccc1`, for which the GI50 with CAKI-1 was 98.2 µM (inactive); in the assay with CCRF-CEM, > 100 µM (inactive); in the assay on COLO 205, 15 µM (inactive); with HCT-116, > 100 µM (inactive); with LOX IMVI, > 100 µM (inactive); with M14, > 100 µM (inactive). Moreover, the GI50 in the assay on NCI-H226 was > 100 µM (inactive); with NCI-H460, 8.17 µM (inactive); in the assay on OVCAR-3, > 100 µM (inactive); in the assay on OVCAR-8 it was > 100 µM (inactive); in the assay on SF-268, > 100 µM (inactive); in the assay on SK-MEL-5, 88.3 µM (inactive). Also, the GI50 in the assay on SNB-19, in the assay with SNB-75, with SR, in the assay on SW-620, in the assay with TK-10 and in the assay on UO-31 was > 100 µM (inactive) throughout.
`Cc1ccc(S(=O)(=O)N(CCN)c2cc3c4c(c2)Oc2cccc5c2C4c2c(cccc2O3)O5)cc1`: the GI50 in the assay with A498 is 55.3 µM (inactive); in the assay with CCRF-CEM, 22.7 µM (inactive); in the assay with COLO 205, 22.6 µM (inactive); in the assay with HCT-116, 16.3 µM (inactive); in the assay with LOX IMVI, 23.2 µM (inactive); in the assay with M14, 25.6 µM (inactive). Also, the GI50 in the assay on NCI-H226 was 12.4 µM (inactive); with NCI-H460 it was > 100 µM (inactive); in the assay with OVCAR-3, 20 µM (inactive); in the assay on OVCAR-8 it was 11.1 µM (inactive); in the assay on SF-268, 14.4 µM (inactive); in the assay with SK-MEL-5 it was 19.9 µM (inactive). For the same compound, the GI50 was 29.4 µM (inactive) in the assay with SNB-19; 12.6 µM (inactive) in the assay with SNB-75; 0.724 µM (active) with SR; 36.5 µM (inactive) with SW-620; 48.9 µM (inactive) in the assay with TK-10; > 100 µM (inactive) with UO-31.
For `C/C(=N\NC(=O)C(N)=O)c1c(O)cc(C)oc1=O`, the GI50 with A498, in the assay with CCRF-CEM, in the assay with HCT-116, with LOX IMVI, in the assay with M14 and in the assay with NCI-H226 was > 100 µM (inactive) each time. For the same compound, the GI50 with NCI-H460, with OVCAR-8, in the assay on SF-268, in the assay on SK-MEL-5, in the assay on SNB-19 and with SNB-75 was > 100 µM (inactive) each time. The GI50 in the assay with SR, in the assay with SW-620, with TK-10 and in the assay on UO-31 was > 100 µM (inactive) throughout.
In the case of `CCC1=C(C[C@H]2NCCc3cc(OC)c(OC)cc32)C[C@H]2c3cc(OC)c(OC)cc3CCN2C1`, the GI50 in the assay on A498 is 0.0181 µM (active); with CAKI-1 it was 0.0312 µM (active); in the assay on HCT-116 it was 0.0173 µM (active); in the assay on M14, 0.0235 µM (active); in the assay with NCI-H460, 0.0261 µM (active); in the assay on OVCAR-3 it was 0.0387 µM (active). In addition, the GI50 is 0.0272 µM (active) in the assay with OVCAR-8; 0.0356 µM (active) in the assay with SF-268; 0.0234 µM (active) in the assay with SK-MEL-5; 0.0332 µM (active) with SNB-75; 0.0101 µM (active) in the assay on SR; 0.028 µM (active) in the assay on SW-620. For the same compound, the GI50 in the assay with UO-31 was 0.316 µM (active).
Turning to `CNC(=S)N(C)C(=S)Nn1c(=O)c(C)nn(C)c1=S`, the GI50 in the assay on A498, in the assay on CCRF-CEM, in the assay with COLO 205, in the assay on HCT-116, with LOX IMVI and in the assay on M14 was > 100 µM (inactive) each time. Also, the GI50 with NCI-H226, with NCI-H460, in the assay with OVCAR-8, in the assay on SF-268, in the assay on SK-MEL-5 and with SNB-19 was > 100 µM (inactive) throughout. In addition, the GI50 in the assay on SNB-75, with SR and in the assay on SW-620 was > 100 µM (inactive) throughout.
As to `CC12CCCC(C#N)(C1)OC2=O` (stereo not drawn), the GI50 with A498, in the assay on CAKI-1, with CCRF-CEM, in the assay with HCT-116, with M14 and in the assay on NCI-H226 was > 100 µM (inactive) each time. In addition, the GI50 with NCI-H460, in the assay on OVCAR-3, with OVCAR-8, in the assay on SF-268, with SK-MEL-5 and with SNB-19 was > 100 µM (inactive) in each case. For the same compound, the GI50 in the assay with SNB-75, with SR, in the assay on SW-620, in the assay with TK-10 and in the assay on UO-31 was > 100 µM (inactive) throughout.

These data come from ChEMBL document CHEMBL1201862, “PubChem BioAssay data set” (2004).
